Experimental findings from patent US5424426A, “Dithiolanylglycine-containing HIV protease inhibitors of the hydroxyethylene isostere type” (Bayer Aktiengesellschaft, priority 1992, dated 1995) are described below.

In one assay the target is T1, HIV protease (HIV-1) (Human immunodeficiency virus type 1 group M subtype B, UniProt P04585).
T1 construct: purified HIV protease was incubated with synthetic peptide
The assay is described as follows: HIV-specific protease enzyme test (RP-HPLC analysis of synthetic peptide cleavage). Format: biochemical. Particulars: purified HIV protease, synthetic Gag cleavage-site peptide. On the procedure:
The results of the examples listed below were determined by the HIV test system described in the following references [cf. Hansen, J., Billich, S., Schulze, T., Sukrow, S. and Molling, K. (1988), EMBO Journal, Vol. 7, No. 6, pp. 1785-1791]: purified HIV protease was incubated with synthetic peptide which imitates a cleavage site in the Gag precursor protein and represents an in vivo cleavage site of the HIV protease. The resulting cleavage products of the synthetic peptide were analysed by means of reverse phase high performance liquid chromatography (RP-HPLC). The IC50 values given relate to the substance concentration which causes a 50% strength inhibition of the protease activity under the above-mentioned test conditions.

Assay [1] concerns HIV. Put plainly: HIV infection in cell culture, syncytia formation in PBLs. The assay is classed as cell-based. Particulars: HIV-infected normal human blood lymphocytes (PBLs); 50% suppression of virus-induced syncytia. The procedure: (§1) The HIV test was carried out with slight modifications by the method of Pauwels et al. [cf. Journal of Virological Methods 20, (1988), 309-321].
Normal human blood lymphocytes (PBLs) were enriched on Ficoll-Hypaque and stimulated in RPMI 1640, 20% foetal calf serum containing phytohaemagglutinin (90 μg/ml) and interleukin-2 (40 U/ml). For infection with the infectious HIV, PBLs were pelleted and the cell pellet was then suspended in 1 ml of HIV virus adsorption solution and incubated for 1 hour at 37° C.
The virus adsorption solution was centrifuged and the infected cell pellet taken up in growth medium so that a concentration of 1×10^5 cells per ml was established. The cells infected in such a way were pipetted at 1×10^4 cells/well into the wells of 96-well microtitre plates.
The first vertical row of the microtitre plate contained only growth medium and cells which had not been infected, but otherwise had been treated exactly as described above (cell control). The second vertical row of the microtitre plate contained only HIV-infected cells (virus control) in growth medium. The other wells contained the compounds according to the invention in different concentrations, starting from the wells of the 3rd vertical row of the microtitre plate, from which the test substances were diluted 2^10 times in steps of two.
The test batches were incubated at 37° C. until in the untreated virus control the syncytia formation typical of HIV occurred (between day 3 and 6 after infection), which was then assessed by microscopy.
(§2) The IC50 values were determined as the concentrations of the […] at which 50% (about 10 syncytia) of the virus-induced syncytia were suppressed by the treatment with the compound according to the invention.

In assay [2] the test system is HIV. Put plainly: HIV infection in cell culture, H-9 cells. The assay is classed as cell-based. To be noted: HIV-infected H-9 cells. On the procedure:
as §1, §2

Structures can show the parent of a compound that is named as a salt.

In the case of `CC[C@H](C)[C@H](NC(=O)C(C[C@H](O)[C@H](CC1CCCCC1)NC(=O)[C@@H](N)C1SCCS1)C(C)C)C(=O)Nc1ccccn1` (stereo partly drawn) [Example 2, 1-{(2R,S;4S,5S)-5-[(2R)-2-Amino-2-[2-(1,3-dithiolan-2-yl)]ethanoyl]-amino-6-cyclohexyl-4-hydroxy-2-(1-methyl)ethyl-hexanoyl}-S-isoleucinyl-2-pyridylamide dihydrochloride], the half-maximal inhibitory concentration (IC50) on HIV protease (HIV-1) is 1.3 to 9 nM; in the assay on HIV [1] it was 10000 nM.
Turning to `CC[C@H](C)[C@H](NC(=O)[C@H](Cc1ccccc1)C[C@H](O)[C@H](CC1CCCCC1)NC(=O)[C@@H](NC(=O)OC(C)(C)C)C1SCCS1)C(=O)Nc1ccccn1` [Example 3, 1-{(2R,4S,5S)-5-[(2R)-N-(tert-Butoxycarbonyl)-2-amino-2-[2-(1,3-dithiolan-2-yl)]ethanoyl]amino-6-cyclohexyl-4-hydroxy-2-(phenyl)methyl-hexanoyl}-S-isoleucinyl-2-pyridylamide], the figures for the half-maximal inhibitory concentration (IC50) against HIV protease (HIV-1) and in the assay with HIV [1] were 13 to 80 nM and 1000 nM, respectively.
The matching figures for “1-{(2R,4S,5S)-5-[(2S)-3-(tert-Butylsulphonyl)-2-(1-naphthylmethyl)propanoyl]-(2R)-N-(tert-butoxycarbonyl)-2-amino-2-[2-(1,3-dithiolan-2-yl)ethanoyl]amino-6-cyclohexyl-4-hydroxy-2-(1-methyl)ethyl-hexanoyl}-S-isoleucinyl-2-pyridylamide [Example 8]”: 1.2 to 9 nM and 1000 nM.
For `CC[C@H](C)[C@H](NC(=O)[C@@H](Cc1ccccc1)C[C@H](O)[C@H](CC1CCCCC1)NC(=O)[C@@H](NC(=O)OC(C)(C)C)C1SCCS1)C(=O)Nc1ccccn1` [Example 4, 1-{(2S,4S,5S)-5-[(2R)-N-(tert-Butoxycarbonyl)-2-amino-2-[2-(1,3-dithiolan-2-yl)]ethanoyl]amino-6-cyclohexyl-4-hydroxy-2-(phenyl)methyl-hexanoyl}-S-isoleucinyl2-pyridylamide] the same measures were 16 to 80 nM and 1000 nM.
For “1-{(2R,S,4S,5S) -5-[(2R)-N-(tert-Butoxycarbonyl)-2-amino-2-[2-(1,3-dithiolan-2-yl)]ethanoyl]amino-6-cyclohexyl-4-hydroxy-2-(1-methyl)ethyl-hexanoyl}-S-isoleucinyl2-pyridylamide [Example 1]” the same measures were 1.4 to 9 nM and > 1000 nM.
For “1-}(2S,4S,5S)-5-[(2S)-3-(tert-Butylsulphonyl)-2-(1-naphthylmethyl)propanoyl]-(2R)-N-(tert-butoxycarbonyl)-2-amino-2-[2-(1,3-dithiolan-2-yl)]ethanoyl]amino-6-cyclohexyl-4-hydroxy-2-(1-methyl)ethyl-hexanoyl}-S-isoleucinyl-2-pyridylamide [Example 9]”, the half-inhibitory concentration (IC50) was 1 to 9 nM at HIV protease (HIV-1), 11 nM with HIV [2] and 40 nM in the assay with HIV [1].
Regarding `C=CCC(C[C@H](O)[C@H](CC1CCCCC1)NC(=O)[C@@H](NC(=O)OC(C)(C)C)C1SCCS1)C(=O)N[C@H](C(=O)Nc1ccccn1)[C@@H](C)CC` (stereo partly drawn) [Example 5, 1-{(2R,S,4S,5S)-5-[(2R)-N-(tert-Butoxycarbonyl)-2-amino-2-[2-(1,3-dithiolan-2-yl)]ethanoyl]amino-6-cyclohexyl-4-hydroxy-2-(2-propenyl)-hexanoyl}-S-isoleucinyl-2-pyridylamide], the results for the IC50 against HIV protease (HIV-1) and in the assay with HIV [1] were 1.4 to 9 nM and 400 nM, respectively.

One may read the IC50 as the concentration needed to halve the response being measured.
